Data on 78 compounds can be found in the METLIN SMRT retention time set (Domingo-Almenara et al. 2019).

This data set can be described thus: gradient 5% acetonitrile 3 min, to 50% in 2 min, to 85% in 15 min, held 3 min, 100 µL/min. To be noted: column: Zorbax Extend-C18 2.1 x 50 mm; eluents: water / acetonitrile, 0.1% formic acid. The method, boiled down:
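Over 3 months, pure standards in mixtures of ~100 molecules were run by HPLC coupled to a quadrupole time-of-flight mass spectrometer in positive and negative ionization mode. The column was a Zorbax Extend-C18 (2.1 × 50 mm, 1.8 μm) at 100 μL/min, eluted with water and acetonitrile each holding 0.1% formic acid, with 40 μL dead and 900 μL dwell volumes. Retention time was determined from adduct peaks chosen by software and checked manually.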
With `Cc1c(S(=O)(=O)NCc2ccc3c(c2)CCN3C(=O)C(C)C)cnn1C(F)F`, the RP-LC retention time stood at 801 s.

With `CN1CCN(S(=O)(=O)c2ccc3nn(CCc4ccccc4)c(=O)n3c2)CC1`, the RP-LC retention time was determined as 627 s.

`Cc1ccc2c(Nc3cccc(C)c3C)c(-c3nc(C)no3)cnc2n1`: the RP-LC retention time came to 797 s.

As for `CCN1C(=O)CCc2cc(NS(=O)(=O)c3cccc(Cl)c3)ccc21`, the RP-LC retention time worked out at 1000 s.

For the compound `O=C(NC1CCN(c2cc(-c3ccc(F)cc3)[nH]n2)C1)c1cccc(Br)c1` (stereo not drawn), the RP-LC retention time was determined as 806 s.

As for `O=C(CNS(=O)(=O)c1ccc(F)cc1)N1CCCC1c1nc(-c2ccc(Cl)cc2)no1` (stereo not drawn), the RP-LC retention time is 990 s.

For `CCc1nc(-c2csc(S(=O)(=O)N3CCC(C(=O)NCc4ccc(F)cc4)CC3)c2)no1`, the RP-LC retention time was 935 s.

Compound `COc1ccc(OC)c2sc(N(Cc3ccco3)C(=O)Cc3cccs3)nc12` yielded an RP-LC retention time of 1050 s.

Regarding `Cn1cnc2c(C(=O)Nc3ccccc3)nn(-c3ccccc3)c2c1=O`, the RP-LC retention time is 835 s.

Regarding `O=c1n(CC2CO2)c(=O)n(CC2CO2)c(=O)n1CC1CO1` (stereo not drawn), the RP-LC retention time worked out at 675 s.

`O=C(NCc1ccc(F)cc1Cl)c1cn(-c2cc(N3CCOCC3)ncn2)cn1` came in with an RP-LC retention time of 840 s.

`CC(C)CCNC(=O)c1ccc2c(c1)nc(Nc1n[nH]c3ccc(-c4ccccc4OC(F)(F)F)cc13)n2C1CCC(O)CC1` (stereo not drawn) showed an RP-LC retention time of 957 s.

Turning to `CCCC(=O)N1CCCC(COc2ccc(C(=O)NC(C)C)cc2)C1` (stereo not drawn), the RP-LC retention time was found to be 784 s.

In turn, `CC1CCN(C(=O)c2nnc(-c3ccc(S(=O)(=O)N4CCCC4)cc3)o2)CC1` gave an RP-LC retention time of 952 s.

As to `COC(=O)c1[nH]c2c(c1C)C(=O)CC(c1ccccc1)C2` (stereo not drawn), the RP-LC retention time was 860 s.

For `CCCn1cc(CCNC(=O)c2cc(Cl)ccc2F)c2cccnc21`, the RP-LC retention time came out at 852 s.

As to `CNC(=O)[C@@H]1C[C@H](Oc2cccnc2)CN1C(=O)Cn1c(=O)oc2ccccc21`, the RP-LC retention time turned out to be 582 s.

Compound `Fc1ccc(-c2nc(-c3ccc(-n4cccn4)nc3)no2)cc1` showed an RP-LC retention time of 1230 s.

On to `Cc1cc(C)c(S(=O)(=O)N2CCC(n3cnc4ccc(C)cc4c3=O)CC2)c(C)c1`, for which the RP-LC retention time is 640 s.

Compound `Cc1[nH]c(C(=O)N2CCC(CC(=O)NCCC3=CCCCC3)CC2)c(C)c1C` registered an RP-LC retention time of 910 s.

Compound `COc1ccc(S(=O)(=O)N2CC3CN(C(=O)CC(C)C)CC(C2)O3)cc1` returned an RP-LC retention time of 759 s.

In the case of `Cc1ccn2cc(-c3ccc(C)c(NS(=O)(=O)c4cc(C)c(C)cc4C)c3)nc2c1`, the RP-LC retention time was found to be 759 s.

In turn, `CNC(=O)N1CCCC(c2cccc(C(=O)N3CCN(c4ccc(Cl)cc4)CC3)c2)C1` (stereo not drawn) yielded an RP-LC retention time of 864 s.

`CCOC(=O)c1cccc(NS(=O)(=O)c2cc(-c3c(CC)noc3NC(C)=O)ccc2OC)c1`: the RP-LC retention time is 814 s.

`COc1ccc(OC)c(NC(=O)N2CCC3(CC2)N=C(c2ccc(C)c(C)c2)C(=O)N3)c1` gave an RP-LC retention time of 896 s.

`CCn1cc(C2=CCN(S(=O)(=O)c3ccc(OC)cc3)CC2)c2cccnc21` yielded an RP-LC retention time of 986 s.

`Cc1noc(C)c1-c1ccc(S(=O)(=O)N2CCCCC2)cc1` gave an RP-LC retention time of 961 s.

The compound `CN1c2cc(F)ccc2C(=O)NC12CCN(C(=O)Cc1cccc(F)c1)CC2` yielded an RP-LC retention time of 752 s.

`Cc1ccc(-c2csc(NC(=O)CSc3nc4c(cc3C#N)CN(C(C)C)CC4)n2)cc1` returned an RP-LC retention time of 741 s.

Take `O=C(Cc1cccs1)N1CCc2c([nH]c3ccccc23)C1c1ccc(F)cc1` (stereo not drawn): the RP-LC retention time was 1130 s.

Turning to `Cc1ccc(NC(=O)Nc2ccc(NC(=O)N3CCCC(C(=O)NC(C)C)C3)cc2)cc1` (stereo not drawn), the RP-LC retention time worked out at 760 s.

With `O=C(CS(=O)(=O)Cc1ccccc1)Nc1nc(-c2ccccc2)cs1`, the RP-LC retention time worked out at 956 s.

For the compound `CCn1c(CN(C)C(=O)Nc2ccc3c(c2)OCO3)nc2cc(C(=O)N(C)C)ccc21`, the RP-LC retention time is 607 s.

`Cc1cc(NC(=O)C2CCCN(C(=O)C3Sc4ccccc4NC3=O)C2)ccc1Br` (stereo not drawn) gave an RP-LC retention time of 901 s.

Turning to `CC(C(=O)N1CCN(c2ncccn2)CC1)n1c2ccccc2c2cnn(C)c(=O)c21` (stereo not drawn), the RP-LC retention time stood at 794 s.

As for `CC(=O)N1CCN(C(=O)C2CCCN(c3ccc(-c4ccc(C)c(C)c4)nn3)C2)CC1` (stereo not drawn), the RP-LC retention time was found to be 622 s.

Consider `CC(C)CC(NC(=O)c1ccc(F)cc1)C(=O)Nc1nc2ccccc2[nH]1` (stereo not drawn), for which the RP-LC retention time was 746 s.

`COc1cc(OC)cc(N2C(=O)C3N=NN(Cc4nc(-c5cccc(Cl)c5)no4)C3C2=O)c1` (stereo not drawn) returned an RP-LC retention time of 1020 s.

`CN(C)c1cc(-n2cccn2)ncn1` yielded an RP-LC retention time of 666 s.

Take `CCOC(=O)c1noc2nc(C)nc(NCc3ccccc3OC)c12`: the RP-LC retention time was 1100 s.

`COc1ccc(C2CC(=O)N(c3ccc(C)c(F)c3)C(=O)C2)cc1` returned an RP-LC retention time of 954 s.

Compound `Cc1ccc(N2CC(C(=O)N3CCC(NS(=O)(=O)c4ccccc4)CC3)CC2=O)cc1C` (stereo not drawn) showed an RP-LC retention time of 800 s.

Regarding `Cc1cc(=O)n(CC(=O)Nc2ccc(F)c(F)c2)c(N)n1`, the RP-LC retention time was determined as 598 s.

`O=C(Nc1nc(-c2ccccc2)c(-c2ccccc2)o1)NC1CCCCC1` gave an RP-LC retention time of 1320 s.

As to `Cc1ccc(NC(=O)CN2C(=O)CN(C)C(=O)c3ccccc32)c(Br)c1`, the RP-LC retention time amounted to 734 s.

`CCOc1ccc(CN(Cc2cc(=O)n3cc(Cl)ccc3n2)CC(C)C)cc1` displayed an RP-LC retention time of 734 s.

Consider `Cc1nc(-c2cn(C)c3ncccc23)sc1C(=O)NCc1ccccc1C(F)(F)F`, for which the RP-LC retention time stood at 998 s.

For the compound `CCc1noc(NC(C)=O)c1-c1ccc(OC)c(S(=O)(=O)N(C)c2ccc(C)cc2)c1`, the RP-LC retention time was found to be 790 s.

Consider `CCOC(=O)N1CCN(S(=O)(=O)c2ccc(C(=O)Nc3nnc(C4CC4)o3)cc2)CC1`, for which the RP-LC retention time turned out to be 661 s.

On to `CCCNC(=O)C1CCCN(c2ccc(SCC(=O)Nc3ccccc3OCC)nn2)C1` (stereo not drawn), for which the RP-LC retention time is 736 s.

In turn, `COc1cccc(C2Cn3nnc(-c4nc(-c5ccccc5F)no4)c3CO2)c1` (stereo not drawn) yielded an RP-LC retention time of 1100 s.

The compound `Cc1ccc(C(=O)Nc2nc(C)cc(C)c2-c2noc(C)n2)cc1` returned an RP-LC retention time of 743 s.

With `Cc1cc(C)c(S(=O)(=O)N2CCC3(CC2)c2nccn2CCN3C)c(C)c1`, the RP-LC retention time is 684 s.

Compound `NS(=O)(=O)c1ccc(-n2nc(C(F)(F)F)cc2-c2ccc(Cl)cc2)cc1` registered an RP-LC retention time of 959 s.

The compound `COC1CCC12CCN(Cc1ccccn1)CC2` (stereo not drawn) yielded an RP-LC retention time of 571 s.

For `COc1ccc(Cl)cc1NC(=O)c1csc(-c2cn(C)c3ncccc23)n1`, the RP-LC retention time turned out to be 1230 s.

Turning to `COCCn1c(C)cc(O)c(C(c2ccc(OC)cc2)N2CCC(C)CC2)c1=O` (stereo not drawn), the RP-LC retention time was found to be 845 s.

In the case of `CN(C)c1ccc(-c2nc3ncc(Cl)c(N4CCN(CC(=O)Nc5nccs5)CC4)c3[nH]2)cc1`, the RP-LC retention time worked out at 704 s.

In turn, `CCOc1ccc(CNC(=O)Cc2csc3nc(-c4ccc(C)c(C)c4)cn23)cc1OC` had an RP-LC retention time of 810 s.

`CN(C)c1ccc(-c2nc3ccc(Cl)cn3c2Nc2ccc3c(c2)OCO3)cc1` returned an RP-LC retention time of 764 s.

In turn, `Cc1cc(=O)n(CC(=O)NCc2ccccc2Cl)c(N2CCOCC2)n1` returned an RP-LC retention time of 662 s.

Compound `CN(C)CCNC(=O)Cn1cnc2onc(-c3ccc(F)cc3)c2c1=O` displayed an RP-LC retention time of 620 s.

For `CCc1cccc(NC(=O)Cn2nc3cc(C)nc(Nc4ccccc4C)n3c2=O)c1`, the RP-LC retention time stood at 711 s.

Regarding `Cn1cccc1C(=O)C(=O)Nc1ccccc1C(F)(F)F`, the RP-LC retention time is 1060 s.

Regarding `CCN1C(=O)c2cccnc2Sc2cc(NC(=O)CCc3ccccc3OC)ccc21`, the RP-LC retention time is 871 s.

`O=C(NCc1cccnc1)C1c2ccccc2C(=O)N1C1CCCCCC1` (stereo not drawn): the RP-LC retention time came to 624 s.

Consider `CN1CCN(C(=O)Cn2c(-c3cccs3)cc3ccccc32)CC1`, for which the RP-LC retention time was found to be 671 s.

`Cc1csc(-c2cc(S(=O)(=O)NCCN3CCOCC3)cn2CC(=O)N2CCCCC2)n1`: the RP-LC retention time was determined as 654 s.

`CCC(=O)N1c2ccccc2NC2=C(C(=O)CC(C)(C)C2)C1c1ccc(C(=O)OC)cc1` (stereo not drawn) showed an RP-LC retention time of 749 s.

As for `COc1ccccc1CNC(=O)C1CCN(c2cc(N3CCOCC3)ncn2)CC1`, the RP-LC retention time is 619 s.

The compound `Cn1cc(-c2nc(C(=O)NCc3ccc(F)cc3Cl)cs2)c2cccnc21` showed an RP-LC retention time of 1010 s.

`Cc1nc(-c2noc(-c3ccccc3)n2)cn1CC(=O)NCc1cccc(Cl)c1` yielded an RP-LC retention time of 866 s.

Regarding `NS(=O)(=O)c1ccc(NS(=O)(=O)c2cc(-c3noc(C4CCCC4)n3)cs2)cc1`, the RP-LC retention time was determined as 882 s.

For the compound `CC1CCCCN1CCNC(=O)C1CCCN(c2cnc3nccnc3c2)C1` (stereo not drawn), the RP-LC retention time was 570 s.

With `O=S(=O)(c1ccccc1)N1CCCC(c2nc(CCOCC3CC3)no2)C1` (stereo not drawn), the RP-LC retention time is 924 s.

For the compound `CN(C)C[C@@H]1CN(S(C)(=O)=O)C[C@H]1NC(=O)c1cccs1`, the RP-LC retention time was determined as 569 s.

`CCOC(=O)c1c(S(=O)(=O)N2CCC(C(=O)NCc3cccc(OC)c3)CC2)c(C)n(C)c1C` showed an RP-LC retention time of 772 s.

The compound `O=C(Nc1nc(-c2ccc3c(c2)OCO3)cs1)c1ccco1` registered an RP-LC retention time of 798 s.
